Experimental data reported in patent US11098056B2, “UDP glycosyltransferase inhibitors and methods of use” (GENZYME CORPORATION, priority 2018, dated 2021).

biological target: T1, UGT8 (Homo sapiens, UniProt Q16880); assay: In vitro sulfatide (SFT) synthesis inhibition in OE19 cells, LC-MS/MS readout; assay type: cell-based; conditions: 72 hr, sulfatide by LC-MS/MS
T1 construct: host or cells: OE19 cells
T1 sequence (Q16880 21-541): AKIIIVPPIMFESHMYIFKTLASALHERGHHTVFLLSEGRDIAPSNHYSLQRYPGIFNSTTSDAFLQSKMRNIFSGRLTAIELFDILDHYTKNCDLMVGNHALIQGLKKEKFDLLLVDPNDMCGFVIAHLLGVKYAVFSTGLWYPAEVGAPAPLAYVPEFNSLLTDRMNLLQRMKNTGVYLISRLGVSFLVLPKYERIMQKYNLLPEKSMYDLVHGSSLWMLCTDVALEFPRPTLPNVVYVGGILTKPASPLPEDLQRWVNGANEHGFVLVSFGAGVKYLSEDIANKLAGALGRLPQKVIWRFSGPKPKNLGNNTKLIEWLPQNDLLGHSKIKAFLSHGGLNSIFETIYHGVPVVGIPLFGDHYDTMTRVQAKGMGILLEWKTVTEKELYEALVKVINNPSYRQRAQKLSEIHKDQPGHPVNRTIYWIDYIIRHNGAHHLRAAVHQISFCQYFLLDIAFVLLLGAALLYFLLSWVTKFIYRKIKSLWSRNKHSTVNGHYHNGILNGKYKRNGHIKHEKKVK
Summary of the method: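 OE19 cells, 2,500/well, exposed to compound dose-downs in triplicate for 72 hr at 37° C (screening at 10 μM final). Sulfatide quantified by LC-MS/MS (C8 UPLC, isocratic, negative-ion MRM) with C17 SFT internal standard; IC50 from concentration-response curves.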

Row | Potency range (IC50, In-vitro SFT) | SMILES
1 | A (A < 0.1 uM) | CNC(=O)c1csc2c(C(F)(F)F)cc(N3CCC(OC(=O)NCC4CC4)CC3)nc12.Cl [Example 669, [1-[3-(Methylcarbamoyl)-7-(trifluoromethyl)thieno[3,2-b]pyridin-5-yl]-4-piperidyl] N-(cyclopropylmethyl)carbamate hydrochloride]

same assay, conditions: 72 hr, sulfatide by LC-MS/MS, read-out: Potency range (IC50, In-vitro SFT)

Row | SMILES | IC50 [nM]
2 | CNC(=O)c1csc2c(C(F)(F)F)cc(C3CC4(C3)CN(C(=O)OC(C)(C)C)C4)nc12 [Example 574, tert-Butyl 6-(3-(methylcarbamoyl)-7-(trifluoromethyl)thieno[3,2-b]pyridin-5-yl)-2-azaspiro[3.3]heptane-2-carboxylate] | < 100
3 | CNC(=O)c1csc2c(C(F)(F)F)cc(C3CC4(C3)CN(C(=O)OCCOC(F)(F)F)C4)nc12 [Example 576, 2-(Trifluoromethoxy)ethyl 6-(3-(methylcarbamoyl)-7-(trifluoromethyl)thieno[3,2-b]pyridin-5-yl)-2-azaspiro[3.3]heptane-2-carboxylate] | < 100
4 | CNC(=O)c1csc2c(C(F)(F)F)cc(OCC3CN(C(=O)OC(C)(C)C)C3)nc12 [Example 585, tert-Butyl 3-(((3-(methylcarbamoyl)-7-(trifluoromethyl)thieno[3,2-b]pyridin-5-yl)oxy)methyl)azetidine-1-carboxylate] | 100 to 1000
5 | CNC(=O)c1csc2c(C(F)(F)F)cc(OC3CCN(C(=O)OC(C)(C)C)C3)nc12 (centres unmarked) [Example 589, tert-Butyl 3-((3-(methylcarbamoyl)-7-(trifluoromethyl)thieno[3,2-b]pyridin-5-yl)oxy)pyrrolidine-1-carboxylate] | 100 to 1000
6 | CNC(=O)c1csc2c(C(F)(F)F)cc(O[C@H]3CCN(C(=O)OCCOC(F)(F)F)C3)nc12 [Example 600, 2-(Trifluoromethoxy)ethyl (S)-3-((3-(methylcarbamoyl)-7-(trifluoromethyl)thieno[3,2-b]pyridin-5-yl)oxy)pyrrolidine-1-carboxylate] | < 100
7 | CNC(=O)c1csc2c(C(F)(F)F)c(Cl)c(N3CCN(CC(=O)NC(C)C)CC3)nc12 [Example 636, 6-Chloro-5-[4-[2-(isopropylamino)-2-oxo-ethyl]piperazin-1-yl]-N-methyl-7-(trifluoromethyl)thieno[3,2-b]pyridine-3-carboxamide] | 100 to 1000
8 | CNC(=O)c1csc2c(C(F)(F)F)c(F)c(N3CCC(OC(=O)N[C@@H](C)C4CC4)CC3)nc12 [Example 639, [1-[6-Fluoro-3-(methylcarbamoyl)-7-(trifluoromethyl)thieno[3,2-b]pyridin-5-yl]-4-piperidyl] N-[(1S)-1-cyclopropylethyl]carbamate] | < 100
9 | [2H]C([2H])([2H])NC(=O)c1csc2c(C(F)(F)F)cc(N3CCC(OC(=O)NC4CC4)CC3)nc12 [Example 653, [1-[3-(Trideuteriomethylcarbamoyl)-7-(trifluoromethyl)thieno[3,2-b]pyridin-5-yl]-4-piperidyl] N-cyclopropylcarbamate] | < 100
10 | COC(=O)c1csc2c(C(F)(F)F)cc(N3CCC(NC(=O)OC(C)(C)C)C3)nc12 (centres unmarked) [Example 659, Methyl 5-[3-(tert-butoxycarbonylamino)pyrrolidin-1-yl]-7-(trifluoromethyl)thieno[3,2-b]pyridine-3-carboxylate] | 100 to 1000

Continued, values first:

Row | IC50 [nM] | SMILES
11 | 100 to 1000 | CNC(=O)c1csc2c(C(F)(F)F)cc(OC3CCN(C(=O)NCC4CC4)C3)nc12 (centres unmarked) [Example 590, 5-((1-((Cyclopropylmethyl)carbamoyl)pyrrolidin-3-yl)oxy)-N-methyl-7-(trifluoromethyl)thieno[3,2-b]pyridine-3-carboxamide]
12 | 100 to 1000 | CNC(=O)c1csc2c(C(F)(F)F)cc(O[C@H]3CCN(C(=O)OC(C)(C)C)C3)nc12 [Example 593, tert-Butyl (S)-3-((3-(methylcarbamoyl)-7-(trifluoromethyl)thieno[3,2-b]pyridin-5-yl)oxy)pyrrolidine-1-carboxylate]
13 | 100 to 1000 | CNC(=O)c1csc2c(C(F)(F)F)cc(O[C@H]3CCN(C(=O)NCC4CC4)C3)nc12 [Example 594, (S)-5-((1-((Cyclopropylmethyl)carbamoyl)pyrrolidin-3-yl)oxy)-N-methyl-7-(trifluoromethyl)thieno[3,2-b]pyridine-3-carboxamide]
14 | < 100 | CNC(=O)c1csc2c(C(F)(F)F)cc(O[C@H]3CCN(C(=O)OCC4CC4)C3)nc12 [Example 595, Cyclopropylmethyl (S)-3-((3-(methylcarbamoyl)-7-(trifluoromethyl)thieno[3,2-b]pyridin-5-yl)oxy)pyrrolidine-1-carboxylate]
15 | < 100 | CNC(=O)c1csc2c(C(F)(F)F)cc(CC3CCN(C(=O)OCCOC(F)(F)F)CC3)nc12 [Example 632, 2-(Trifluoromethoxy)ethyl 4-((3-(methylcarbamoyl)-7-(trifluoromethyl)thieno[3,2-b]pyridin-5-yl)methyl)piperidine-1-carboxylate]
16 | 100 to 1000 | CNC(=O)c1csc2c(C(F)(F)F)cc(CC3CCN(C(=O)OC(C)(C)C)CC3)nc12 [Example 634, tert-Butyl 4-((3-(methylcarbamoyl)-7-(trifluoromethyl)thieno[3,2-b]pyridin-5-yl)methyl)piperidine-1-carboxylate]
17 | 100 to 1000 | CNC(=O)c1c(OC)sc2c(C(F)(F)F)c(Cl)c(N3CCN(CC(=O)NC(C)C)CC3)nc12 [Example 637, 6-Chloro-5-[4-[2-(isopropylamino)-2-oxo-ethyl]piperazin-1-yl]-2-methoxy-N-methyl-7-(trifluoromethyl)thieno[3,2-b]pyridine-3-carboxamide]
18 | < 100 | CNC(=O)c1csc2c(C(F)(F)F)c(Cl)c(N3CCC(OC(=O)NCC4CC4)CC3)nc12 [Example 638, [1-[6-Chloro-3-(methylcarbamoyl)-7-(trifluoromethyl)thieno[3,2-b]pyridin-5-yl]-4-piperidyl] N-(cyclopropylmethyl)carbamate]
19 | < 100 | CNC(=O)c1csc2c(C(F)(F)F)c(Cl)c(N3CCC(OC(=O)NC4CC4)CC3)nc12 [Example 640, [1-[6-Chloro-3-(methylcarbamoyl)-7-(trifluoromethyl)thieno[3,2-b]pyridin-5-yl]-4-piperidyl] N-cyclopropylcarbamate]
20 | < 100 | CNC(=O)c1csc2c(C(F)(F)F)c(F)c(N3CCC(OC(=O)NC4CC4)CC3)nc12 [Example 641, [1-[6-fluoro-3-(methylcarbamoyl)-7-(trifluoromethyl)thieno[3,2-b]pyridin-5-yl]-4-piperidyl] N-cyclopropylcarbamate]
21 | 100 to 1000 | CC(C)NC(=O)c1csc2c(C(F)(F)F)cc(N3CCC(NC(=O)OC(C)(C)C)C3)nc12 (centres unmarked) [Example 642, tert-Butyl N-[1-[3-(isopropylcarbamoyl)-7-(trifluoromethyl)thieno[3,2-b]pyridin-5-yl]pyrrolidin-3-yl]carbamate]
22 | 100 to 1000 | CC(C)NC(=O)CN1CCN(c2cc(C(F)(F)F)c3scc(C(=O)N4CCC4)c3n2)CC1 [Example 649, 2-[4-[3-(Azetidine-1-carbonyl)-7-(trifluoromethyl)thieno[3,2-b]pyridin-5-yl]piperazin-1-yl]-N-isopropyl-acetamide]
23 | < 100 | CNC(=O)c1csc2c(C(F)(F)F)cc(N3CCC(OC(=O)NC(C)C(F)F)CC3)nc12 (centres unmarked) [Example 670, [1-[3-(Methylcarbamoyl)-7-(trifluoromethyl)thieno[3,2-b]pyridin-5-yl]-4-piperidyl] N-(2,2-difluoro-1-methyl-ethyl)carbamate]
